Source: patent US20220194914A1, “METHODS AND SYSTEMS FOR PRODUCTION OF FURFURAL” (SHELL OIL COMPANY, priority 2020, published 2022)
Like-named read-outs stand apart in the source and are kept apart here.

Key:
[1] = cited from earlier work; for Water solubility g/L (20° C.) / water solubility: 20° C.
[2] = octanol-water, cited from earlier work
[3] = Partitioning of components between the aqueous and non-aqueous phase of the biphasic solution (Example 4); format: physicochemical; conditions: aqueous pH 1 (H2SO4), calculated ionic strength 3.0 M (Na2SO4) / MN, 1:1 volume
Text: The non-aqueous phase solution contains MN, PBA, and furfural. The biphasic solution was mixed to allow adequate contact amongst the various components, and the biphasic solution was subsequently allowed to settle into the two phases: aqueous and non-aqueous.

Molecule | LogP ([2]; Table 2 solvents) | Water solubility g/L (20° C.) ([1]; Table 1 boronic acids) | LogP ([2]; Table 1 boronic acids) | also measured
CCCCCCCCO [1-octanol] | 3.10 | – | – | Water solubility g/L (20° C.) ([1]; Table 2 solvents): 0.3 g/L
Cc1cccc(C)c1O [2,6 xylenol] | 2.40 | – | – | –
OB(O)c1ccc2ccccc2c1 [2-naphthylboronic acid] | – | 0.3 g/L | 2.82 | water solubility [1]: 0.03 wt %; LogP [2]: 2.82
CCCCc1ccc(B(O)O)cc1 [4-butylphenyl boronic acid] | – | Insoluble | 3.64 | –
CCc1ccc(B(O)O)cc1 [4-ethylphenyl boronic acid] | – | – | 2.58 | –
CC(C)(C)c1ccc(B(O)O)cc1 [4-tert-Butylphenyl boronic acid] | – | Insoluble | 3.28 | –
CCc1ccc(O)cc1 [4Et-phenol] | 2.47 | – | – | Water solubility g/L (20° C.) ([1]; Table 2 solvents): 6.1 g/L
CC(C)CB(O)O [(2-methylpropyl) boronic acid] | – | 33 g/L | 0.6 | –
c1ccc2occc2c1 [Benzofuran] | 2.67 | – | – | Water solubility g/L (20° C.) ([1]; Table 2 solvents): insoluble
Cc1cccc(O)c1 [Cresol (m)] | 1.94 | – | – | –
OB(O)C1CCCCC1 [Cyclohexyl boronic acid] | – | 25 g/L | 1.90 | –
CC(C)OC(C)C [Diisopropyl ether] | 2.03 | – | – | Water solubility g/L (20° C.) ([1]; Table 2 solvents): 1.7 g/L
CCc1ccccc1 [Ethylbenzene] | 2.96 | – | – | Water solubility g/L (20° C.) ([1]; Table 2 solvents): 0.15 g/L
O=Cc1ccco1 [Furfural] | – | – | – | mol % of the component in Non-aqueous Phase with respect to the biphasic solution [3]: (88 mol %); molar concentration in Aqueous Phase [3]: 46 mM; molar concentration in Non-aqueous Phase [3]: 352 mM; mol % of the component in Non-aqueous Phase with respect to the biphasic solution ([3]; listed as furfural): 88 mol %
OB(O)CCc1ccccc1 [Phenethyl boronic acid] | – | 1.8 g/L | 1.20 | –
O=S(=O)([O-])[O-].[Na+].[Na+] [Salt (based on 2Na), Na2SO4] | – | – | – | mol % of the component in Aqueous Phase with respect to the biphasic solution [3]: (>99 mol %); mol % of the component in Non-aqueous Phase with respect to the biphasic solution [3]: (0.2 mol %); molar concentration in Aqueous Phase [3]: 1M; molar concentration in Non-aqueous Phase [3]: 2 mM; mol % of the component in Aqueous Phase with respect to the biphasic solution ([3]; listed as Na2SO4): over 99 mol %
COc1ccccc1 [anisole] | – | – | – | Water solubility g/L (20° C.) ([1]; Table 2 solvents): 1.5 g/L
CCCCB(O)O [butylboronic acid] | – | 25 g/L | 1.43 | –
COc1ccccc1O [guaiacol] | 0.97 | – | – | Water solubility g/L ([1]; 25° C., Table 2 solvents): 18.7 (25° C.) g/L
CCCCCCC [heptane] | 4.47 | – | – | Water solubility g/L (20° C.) ([1]; Table 2 solvents): 0.003 g/L
Cc1cccc(B(O)O)c1 [m-tolylboronic acid] | – | 25 g/L | 2.05 | –
OB(O)c1cccc2ccccc12 [naphthalene-1-boronic acid] | – | 0.3 g/L | – | –
Cc1ccccc1B(O)O [o-tolylboronic acid] | – | Slightly | 2.05 | –
CCCCCCCCB(O)O [octylboronic acid] | – | Insoluble | 3.56 | water solubility [1]: water-insoluble; LogP [2]: 3.56
OB(O)c1ccccc1 [phenylboronic acid] | – | 10 g/L | 1.59 | water solubility [1]: 1 wt %; molar concentration in Aqueous Phase [3]: 129 mM; molar concentration in Non-aqueous Phase [3]: 566 mM
Methylnaphtalene [MN] | – | – | – | molar concentration in Aqueous Phase [3]: 2 mM; molar concentration in Non-aqueous Phase [3]: 7.03M
